Source: patent publication US20090137499A1, “BENZYLPHENYL GLUCOPYRANOSIDE DERIVATIVE” (priority 2006, published 2009)

What follows are compounds tested against T1, human SGLT1 (Homo sapiens, UniProt P13866) (assay: Determination of SGLT1 inhibiting activity using human SGLT1 expressing cell ([14C]-α-methyl-D-glucopyranoside uptake)). Conditions: HEK-SGLT1 cells, 1 mM [14C]-α-methyl-D-glucopyranoside, 37° C., 30 min.
T1 construct: expressed in transfected cells
T1 sequence (P13866 1-664): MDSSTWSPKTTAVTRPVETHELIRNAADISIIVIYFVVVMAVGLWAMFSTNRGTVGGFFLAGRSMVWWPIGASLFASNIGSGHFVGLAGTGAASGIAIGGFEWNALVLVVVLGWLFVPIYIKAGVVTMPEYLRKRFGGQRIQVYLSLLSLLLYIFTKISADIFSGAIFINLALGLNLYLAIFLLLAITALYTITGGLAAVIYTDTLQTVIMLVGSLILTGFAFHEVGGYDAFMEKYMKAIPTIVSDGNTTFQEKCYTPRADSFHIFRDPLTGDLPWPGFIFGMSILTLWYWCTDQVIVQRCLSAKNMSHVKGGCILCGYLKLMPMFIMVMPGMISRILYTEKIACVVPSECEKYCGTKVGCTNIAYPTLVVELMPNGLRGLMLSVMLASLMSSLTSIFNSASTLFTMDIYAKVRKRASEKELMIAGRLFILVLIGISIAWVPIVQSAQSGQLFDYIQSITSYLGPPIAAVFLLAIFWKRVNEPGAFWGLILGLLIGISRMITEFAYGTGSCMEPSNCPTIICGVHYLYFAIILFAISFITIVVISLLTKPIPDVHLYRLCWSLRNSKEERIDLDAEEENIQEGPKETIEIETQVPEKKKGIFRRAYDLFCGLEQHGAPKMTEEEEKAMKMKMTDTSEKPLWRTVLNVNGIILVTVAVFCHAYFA
Type: cell-based
Procedure: Determination of SGLT1 Inhibiting Activity Using Human SGLT1 Expressing Cell
1) Preparation of Vector Expressing Human SGLT1 cDNA in Animal Cell
Amplification was performed by PCR using human SGLT1 cDNA clone (Origene: Clone Number, TC119918; GenBank accession number, NM 000343) as a template. The sense oligonucleotide primer for PCR was 5′-[…]-3′ (Primer 1: SEQ ID NO: 1 in the sequence listing),
and the antisense oligonucleotide primer was 5′-[…]-3′ (Primer 2: SEQ ID NO: 2 in the sequence listing).
The PCR product was subjected to agarose electrophoresis, then a target DNA fragment was recovered from a single band corresponding to 2013 bases, digested with restriction enzymes HindIII and XhoI, and introduced into the HindIII/XhoI site of vector pCMV-Script (Stratagene) to obtain SGLT1 expressing plasmid pCMV-SGLT1. A HindIII/XhoI fragment was excised from pCMV-SGLT1 and introduced into the BamHI/XhoI site of pENTR1A (Gateway, Invitrogen) to prepare pENTR-SGLT1. Retrovirus vector pLPCX (Clontech) into which Gateway Vector Conversion System Cassette A (Invitrogen) was introduced was used as the destination plasmid to prepare SGLT1 expressing retrovirus vector pLPCX-SGLT1.
2) Establishment of Human SGLT1 Expressing Cell
The retrovirus pLPCX-SGLT1 obtained in 1) was transfected into integrin αvβ3 expressing HEK-293 cells and, the cells were treated with antibiotic G418 (brand name, Geneticin: Invitrogen) and puromycin (Clontech) to obtain HEK-SGLT1 cells stably expressing the target vector having resistance. The stably expressing cells were cultured and maintained in DMEM medium containing […] G418, […] puromycin, 3 mM KGT-1075, and 10% FBS.
3) Determination of SGLT1 Inhibiting Activity
HEK-SGLT1 cells were suspended at a density of 10^6 cells/mL in DMEM medium containing […] G418, 1 mg/ml puromycin, and 10% FBS, and 100 μL was seeded in each well of a type 1 collagen-coated 96-well culture plate (Corning). On the following day, the medium was replaced with a sugar uptake buffer (10 mM HEPES [pH 7.5], 5 mM Tris-HCl [pH 7.5], 140 mM NaCl, 2 mM KCl, 1 mM CaCl2, 1 mM MgCl2), and the cells were cultured with 1 mM [^14C]-α-methyl-D-glucopyranoside (0.1 mCi) and the test compound at 37° C. for 30 min and then washed 3 times with a washing buffer (10 mM HEPES [pH 7.5], 5 mM Tris-HCl [pH 7.5], 140 mM choline chloride, 2 mM KCl, 1 mM CaCl2, 1 mM MgCl2). 100 μL of liquid scintillation cocktail (brand name, Supermix: Perkin-Elmer) was added to each well of the 96-well plate and stirred for 10 min, and then radioactivity was determined with micro β (Perkin-Elmer), a type of liquid scintillation counter. The value as the sugar uptake activity was obtained by deducting the radioactivity in the presence of an excess amount of an SGLT1 inhibiting compound as the background from each measured value, the inhibition rate (%) was calculated from the control sugar uptake activity obtained without using a test compound and the sugar uptake activity obtained using a test compound having a predetermined the concentration, and concentrations of the test compound at which the sugar uptake activity was inhibited by 50% were assessed.

Structure (SMILES)	IC50 [nM]
COc1ccc(Cc2c(Cl)cc(CO)cc2O[C@@H]2O[C@H]([C@@H](C)O)[C@@H](O)[C@H](O)[C@H]2O)cc1 [Example 44, 3-Chloro-5-hydroxymethyl-2-(4-methoxybenzyl)phenyl 7-deoxy-D-glycero-β-D-gluco-heptopyranoside]	29
COc1ccc(Cc2c(Cl)cc(CO)cc2O[C@@H]2O[C@H]([C@H](C)O)[C@@H](O)[C@H](O)[C@H]2O)cc1 [Example 57, 3-Chloro-5-hydroxymethyl-2-(4-methoxybenzyl)phenyl 7-deoxy-L-glycero-β-D-gluco-heptopyranoside]	217
Cc1ccc(Cc2ccc(CO)cc2O[C@@H]2O[C@H]([C@@H](C)O)[C@@H](O)[C@H](O)[C@H]2O)cc1 [Example 98, 5-Hydroxymethyl-2-(4-methylbenzyl)phenyl 7-deoxy-D-glycero-β-D-gluco-heptapyranoside]	180
COc1ccc(Cc2c(Cl)cccc2O[C@@H]2O[C@H]([C@@H](C)O)[C@@H](O)[C@H](O)[C@H]2O)cc1 [Example 42, 3-Chloro-2-(4-methoxybenzyl)phenyl 7-deoxy-D-glycero-β-D-gluco-heptopyranoside]	63
CCc1ccc(Cc2c(F)cc(CO)cc2O[C@@H]2O[C@H]([C@@H](C)O)[C@@H](O)[C@H](O)[C@H]2O)cc1 [Example 47, 2-(4-Ethylbenzyl)-3-fluoro-5-hydroxymethyl-phenyl 7-deoxy-D-glycero-β-D-gluco-heptopyranoside]	66
Cc1ccc(Cc2c(F)cc(CO)cc2O[C@@H]2O[C@H]([C@@H](C)O)[C@@H](O)[C@H](O)[C@H]2O)cc1 [Example 97, 3-Fluoro-5-hydroxymethyl-2-(4-methylbenzyl)phenyl 7-deoxy-D-glycero-β-D-gluco-heptopyranoside]	52
CCc1ccc(Cc2c(C)cc(CO)cc2O[C@@H]2O[C@H]([C@@H](C)O)[C@@H](O)[C@H](O)[C@H]2O)cc1 [Example 89, 2-(4-Ethylbenzyl)-5-hydroxymethyl-3-methylphenyl 7-deoxy-D-glycero-β-D-gluco-heptopyranoside]	81
CCOc1ccc(Cc2ccc(CO)cc2O[C@@H]2O[C@H]([C@@H](C)O)[C@@H](O)[C@H](O)[C@H]2O)cc1 [Example 93, 2-(4-Ethoxybenzyl)-5-hydroxymethylphenyl 7-deoxy-D-glycero-β-D-gluco-heptapyranoside]	430
Cc1cc(C)c(Cc2ccc(CCO)cc2)c(O[C@@H]2O[C@H]([C@@H](C)O)[C@@H](O)[C@H](O)[C@H]2O)c1 [Example 70, 2-[4-(2-Hydroxyethyl)benzyl]-3,5-dimethylphenyl 7-deoxy-D-glycero-β-D-gluco-heptopyranoside]	199
C[C@@H](O)[C@H]1O[C@@H](Oc2cc(CO)ccc2Cc2ccc(C3CC3)cc2)[C@H](O)[C@@H](O)[C@@H]1O [Example 62, 2-(4-Cyclopropylbenzyl)-5-hydroxymethylphenyl 7-deoxy-D-glycero-β-D-gluco-heptopyranoside]	155
C=Cc1cc(CO)cc(O[C@@H]2O[C@H]([C@@H](C)O)[C@@H](O)[C@H](O)[C@H]2O)c1Cc1ccc(OC)cc1 [Example 101, 5-Hydroxymethyl-2-(4-methoxybenzyl)-3-vinyl-phenyl 7-deoxy-D-glycero-β-D-gluco-heptopyranoside]	168
COc1ccc(Cc2c(OC)cc(CO)cc2O[C@@H]2O[C@H]([C@@H](C)O)[C@@H](O)[C@H](O)[C@H]2O)cc1 [Example 83, 5-Hydroxymethyl-3-methoxy-2-(4-methoxybenzyl)phenyl 7-deoxy-D-glycero-β-D-gluco-heptopyranoside]	142
CCCOc1ccc(Cc2c(F)cc(CO)cc2O[C@@H]2O[C@H]([C@@H](C)O)[C@@H](O)[C@H](O)[C@H]2O)cc1 [Example 74, 3-Fluoro-5-hydroxymethyl-2-(4-propoxybenzyl)phenyl 7-deoxy-D-glycero-β-D-gluco-heptopyranoside]	281
COc1ccc(Cc2ccc(CO)cc2O[C@@H]2O[C@H]([C@@H](C)O)[C@@H](O)[C@H](O)[C@H]2O)c(F)c1 [Example 82, 2-(2-Fluoro-4-methoxybenzyl)-5-hydroxymethylphenyl 7-deoxy-D-glycero-β-D-gluco-heptopyranoside]	219
COc1ccc(Cc2c(Cl)cc(C)cc2O[C@@H]2O[C@H]([C@@H](C)O)[C@@H](O)[C@H](O)[C@H]2O)cc1 [Example 43, 3-Chloro-5-methyl-2-(4-methoxybenzyl)phenyl 7-deoxy-D-glycero-β-D-gluco-heptopyranoside]	212
CCOc1ccc(Cc2c(Cl)cc(CO)cc2O[C@@H]2O[C@H]([C@@H](C)O)[C@@H](O)[C@H](O)[C@H]2O)cc1 [Example 45, 3-Chloro-2-(4-ethoxybenzyl)-5-hydroxymethyl-phenyl 7-deoxy-D-glycero-β-D-gluco-heptopyranoside]	118
C[C@@H](O)[C@H]1O[C@@H](Oc2cc(CO)cc(Cl)c2Cc2ccc(OC3CC3)cc2)[C@H](O)[C@@H](O)[C@@H]1O [Example 95, 3-Chloro-2-(4-cyclopropoxybenzyl)-5-hydroxymethyl-phenyl 7-deoxy-D-glycero-β-D-gluco-heptopyranoside]	82
COc1ccc(Cc2ccc(CO)cc2O[C@@H]2O[C@H]([C@@H](C)O)[C@@H](O)[C@H](O)[C@H]2O)cc1F [Example 78, 2-(3-Fluoro-4-methoxybenzyl)-5-hydroxymethylphenyl 7-deoxy-D-glycero-β-D-gluco-heptopyranoside]	234
C[C@@H](O)[C@H]1O[C@@H](Oc2cc(CO)ccc2Cc2ccc(OC3CC3)cc2)[C@H](O)[C@@H](O)[C@@H]1O [Example 60, 2-(4-Cyclopropyloxybenzyl)-5-hydroxymethylphenyl 7-deoxy-D-glycero-β-D-gluco-heptopyranoside]	81
CCc1ccc(Cc2ccc(CCO)cc2O[C@@H]2O[C@H]([C@@H](C)O)[C@@H](O)[C@H](O)[C@H]2O)cc1 [Example 67, 2-(4-Ethylbenzyl)-5-(2-hydroxyethyl)phenyl 7-deoxy-D-glycero-β-D-gluco-heptopyranoside]	491
CSc1ccc(Cc2ccc(CO)cc2O[C@@H]2O[C@H]([C@@H](C)O)[C@@H](O)[C@H](O)[C@H]2O)cc1 [Example 66, 5-Hydroxymethyl-2-(4-methylsulfanylbenzyl)phenyl 7-deoxy-D-glycero-β-D-gluco-heptopyranoside]	214
CCOc1ccc(Cc2c(F)cc(CO)cc2O[C@@H]2O[C@H]([C@@H](C)O)[C@@H](O)[C@H](O)[C@H]2O)cc1 [Example 46, 2-(4-Ethoxybenzyl)-3-fluoro-5-hydroxymethyl-phenyl 7-deoxy-D-glycero-β-D-gluco-heptopyranoside]	56
COc1ccc(Cc2c(C)cc(CO)cc2O[C@@H]2O[C@H]([C@@H](C)O)[C@@H](O)[C@H](O)[C@H]2O)cc1 [Example 94, 5-Hydroxymethyl-2-(4-methoxybenzyl)-3-methylphenyl 7-deoxy-D-glycero-β-D-gluco-heptopyranoside]	37
